Laboratory results reported in patent US6071966A, “1-amino-alkylcyclohexane NMDA receptor antagonists” (Merz + Co. GmbH & Co., priority 1998, dated 2000).

What was measured:
[1] = Rotarod test (motor coordination, ataxia); type: in vivo; settings: mouse, rotarod versus mes, ip; mice, i.p.; Table 8; read-out: TI Rot. (ED50 rotarod failure / ED50 MES)
Method: (§1) All compounds were dissolved in 0.9% saline.
(§2) The MES test was performed together with tests for myorelaxant action (traction reflex) and motor coordination (rotarod). For the traction reflex test mice were placed with their forepaws on a horizontal rod and were required to place all 4 paws on the wire within 10 seconds. To test ataxia (motor coordination) mice were placed on rotarod (5 rpm) and were required to remain on the rod for 1 minute. […] These tests were followed by MES (100 Hz, 0.5 second shock duration, 50 mA shock intensity, 0.9 ms impulse duration, Ugo Basile) applied through corneal electrodes. The presence of tonic convulsions was scored (tonic extension of hind paws with minimum angle to the body of 90°). The aim was to obtain ED50 s for all parameters scored (anticonvulsive activity and motor side effects) with use of the Litchfield Wilcoxon test for quantal dose responses. Division of the ED50 for side effects (ataxia or myorelaxation) by the ED50 for antagonism of electroshock convulsions was used as a therapeutic index (TI).
(§3) Pearson product moment correlation analysis (Sigma Stat, Jandel Scientific) was used to compare in vitro potencies and in vivo anticonvulsant activity.

[2] = i.p.; Table 8
cortical neurones = assay: Excitotoxicity: glutamate toxicity in cultured cortical neurones (MTT test); type: cell-based, rat; settings: words
Method: Cortical neurones were obtained from cerebral cortices of 17/18 day old fetal rats (Wistar), in general following the dissociation procedure described by. After short trypsinization and gentle trituration with fire-polished Pasteur pipettes, the cell suspension was washed by centrifugation. Cells were suspended in serum-free Neurobasal medium with B27 supplement (GIBCO) before plating onto poly-L-lysine (Sigma; 0.2mg/ml, 20 h, 4° C.) and laminin (Sigma; 2 μg/ml, 1h, 37° C.)-coated 96-well plates (Falcon, Primaria) at a density of 5×10^4 cells/well. Cortical neurones were maintained at 37° C. in humidified 10% CO2 /90% air. […]
Exposure to EAA was performed in serum-free Neurobasal medium containing 100 μM glutamate and the drug to be tested. After 20 h of incubation, the cytotoxic effect was morphologically examined under a phase contrast microscope and biochemically quantified by measuring cell viability with the MTT test (Promega). […] These samples were then read using an Elisa plate reader (Thermomax, MWG Biotech) at a wavelength of 570 nm. […]
IC50 s in patch clamp, excitotoxicity, and binding studies were calculated according to the four parameter alogistic equation using the Grafit computer program (Erithacus Software, England). Ki value for binding studies were then determined according to Cheng and Prusoff. […]

[3] = Traction reflex test (myorelaxant action); type: in vivo; settings: mouse, traction reflex versus mes, ip; mice, i.p.; Table 8; read-out: TI Tract. (ED50 traction reflex impairment / ED50 MES)
Method: (§4) NMR female mice (18-28 g) housed 5 per cage were used for the maximal electroshock (MES) and motor impairment tests. […] All compounds were dissolved in 0.9% saline.
as §2, with “(TI). […]” for “(TI).”

[4] = tested on: rotarod performance in mice; assay: Rotarod test (motor coordination, ataxia); type: in vivo; settings: i.p., Table 8
Method: as §1, §2, §3

[5] = tested on: MES-induced convulsions in mice; assay: Anticonvulsive activity: maximal electroshock (MES) test; type: in vivo; settings: i.p., Table 8, 30 min
Method: as §4, §2, §3

traction reflex in mice = assay: Traction reflex test (myorelaxant action); type: in vivo; settings: i.p., Table 8
Method: as §4
as §2, with “(TI). […]” for “(TI).”

NMDA receptor = assay: [3H]-(+)-MK-801 receptor binding to rat cortical membranes; settings: read-out: [3H]MK-801 IC50, [3H]-(+)-MK-801 5 nM, Table 7
Method: Male Sprague-Dawley rats (200-250 g) were decapitated and their brains were removed rapidly. The cortex was dissected and homogenized in 20 volumes of ice-cold 0.32 M sucrose using a glass-Teflon homogenizer. The homogenate was centrifuged at 1000×g for 10 minutes. The pellet was discarded and the supernatant centrifuged at 20,000×g for 20 minutes. The resulting pellet was re-suspended in 20 volumes of distilled water and centrifuged for 20 minutes at 8000×g. Then the supernatant and the buffy coat were centrifuged three times (48,000×g for 20 minutes) in the presence of 50 mM Tris-HCl, pH 8.0. All centrifugation steps were carried out at 4° C. After resuspension in 5 volumes of 50 mM Tris-HCl, pH 8.0 the membrane suspension was frozen rapidly at -80° C. On the day of assay the membranes were thawed and washed four times by resuspension in 50 mM Tris-HCl, pH 8.0 and centrifugation at 48,000×g for 20 minutes. The final pellet was suspended in assay buffer. The amount of protein in the final membrane preparation was determined according to the method of Lowry with some modifications. The final protein concentration used for our studies was between 250-500 μg/ml.
Membranes were re-suspended and incubated in 50 mM Tris-HCl, pH 8.0. […] Incubations were terminated using a Millipore filter system. The samples were rinsed three times with 2.5 ml ice cold assay buffer over glass fiber filters obtained from Schleicher & Schuell under a constant vacuum. Filtration was performed as rapidly as possible. Following separation and rinse, the filters were placed into scintillation liquid (5 ml; Ultima Gold) and radioactivity retained on the filters was determined with a conventional liquid scintillation counter (Hewlett Packard, Liquid Scintillation Analyser).
IC50 s in patch clamp, excitotoxicity, and binding studies were calculated according to the four parameter alogistic equation using the Grafit computer program (Erithacus Software, England). Ki value for binding studies were then determined according to Cheng and Prusoff. Binding values presented are means ±SEM of 3-5 determinations (each performed in duplicate).

[6] = Solubility (analytical certificates); type: physicochemical

Structure (SMILES)	selectivity ratio [1]	Min Lethality [2] [mg/kg]	neuroprotection in vitro (cortical neurones)	selectivity ratio [3]	TI Rot. (ED50 rotarod failure / ED50 MES) [4]	MES ED50 [5] [mg/kg i.p.]	TI Tract. (ED50 traction reflex impairment / ED50 MES) (traction reflex in mice)	IC50 (NMDA receptor) [µM]	Solubility [6]
CC1(C)CC(C)(C)CC(C)(N)C1 [Mrz 2/579, 1-amino-1,3,3,5,5-pentamethylcyclohexane]	5	108	most potent	2.9	–	–	–	–	–
CC1(C)CCCC(C)(N)C1 (stereo not shown) [Mrz 2/621]	–	> 60	–	–	1.5	36.9	1.8	–	–
CC1CC(C)CC(C)(N)C1 (stereo not shown) [Mrz 2/616, 1-amino-1,3,5-trimethylcyclohexane]	1.4	> 50	–	1	–	–	–	150	soluble in water, chloroform
CC1(C)CC(C)(C)CC(C)(N2CCCC2)C1.Cl [MRZ 2/705, N-(1,3,3,5,5-Pentamethylcyclohexyl) pyrrolidine hydrochloride]	–	> 50	–	–	5.4	–	3.9	–	–
